Measurements published in US6133294A (priority 1999, dated 2000).

Columns and labels:
Type in all cases: in vivo
Leptosphaeria nodorum = experiment: Glume blotch of wheat (Leptosphaeria nodorum--LEPTNO); conditions: wheat (cultivar Monon), 100 ppm spray to run off, inoculated after 24 hours; for pest or weed control at 100 ppm: Parastagonospora nodorum, 1DP, read-out: control of plant disease, LEPTNO 1DP
Experimental: (§1) Compound Formulation: Compound formulation was accomplished by dissolving technical materials in acetone, with serial dilutions then made in acetone to obtain desired rates. Final treatment volumes were obtained by adding nine volumes 0.05% aqueous Tween-20 or Triton X-100, depending upon the pathogen.
(§2) Glume blotch of wheat (Leptosphaeria nodorum--LEPTNO): Wheat (cultivar Monon) was grown from seed in a soilless peat-based potting mixture (Metromix) until the seedlings were 1-2 leaf (BBCH 12). These plants were then sprayed to run off with the test compound at a rate of 100 ppm. After 24 hours the test plants were inoculated with an aqueous spore suspension of Leptosphaeria nodorum. The plants were then transferred to the greenhouse until disease developed on the untreated control plants.
(§3) the following table presents the activity of typical compounds of the present invention when evaluated in these experiments. The effectiveness of the test compounds in controlling disease was rated using the following scale: […]

Puccinia recondita = experiment: Brown rust (Puccinia recondita--PUCCRT); conditions: wheat (cultivar Monon), 100 ppm spray to run off, inoculated after 24 hours; for pest or weed control at 100 ppm: Puccinia recondita, 1DP, read-out: control of plant disease, PUCCRT 1DP
Experimental: as §1
as §2, with “Brown rust (Puccinia recondita--PUCCRT):” for “Glume blotch of wheat (Leptosphaeria nodorum--LEPTNO):”, “[…]).” for “1-2 leaf (BBCH 12).”, “Puccinia recondita.” for “Leptosphaeria nodorum.”
as §3

Erysiphe graminis = experiment: Powdery Mildew of Wheat (Erysiphe graminis--ERYSGT); conditions: wheat (cultivar Monon), 100 ppm spray to run off, inoculated after 24 hours; for pest or weed control at 100 ppm: Blumeria graminis, 1DP, read-out: control of plant disease, ERYSGT 1DP
Experimental: as §1
Powdery Mildew of Wheat (Erysiphe graminis--ERYSGT): Wheat (cultivar Monon) was grown in a soilless peat-based potting mixture (Metromix) until the seedlings were 1-2 leaf (BBCH 12). These plants were then sprayed to run off with the test compound at a rate of 100 ppm. After 24 hours the test plants were inoculated with Erysiphe graminis by dusting spores from stock plants onto the test plants. The plants were then transferred to the greenhouse until disease developed on the untreated control plants.
as §3

Phytophthora infestans = experiment: whole plant or invertebrate; conditions: for pest or weed control at 100 ppm: Phytophthora infestans, 24 h, read-out: control of plant disease, PHYTIN 1DP; for control of plant disease, PHYTIN 1DP: tomatoes (cultivar Rutgers), 100 ppm spray to run off, inoculated after 24 hours

Structure (SMILES) | pest or weed control at 100 ppm (Leptosphaeria nodorum) [%] | pest or weed control at 100 ppm (Puccinia recondita) [%] | pest or weed control at 100 ppm (Erysiphe graminis) [%] | pest or weed control at 100 ppm (Phytophthora infestans) [%] | control of plant disease, LEPTNO 1DP (Leptosphaeria nodorum) | control of plant disease, PUCCRT 1DP (Puccinia recondita) | control of plant disease, ERYSGT 1DP (Erysiphe graminis) | control of plant disease, PHYTIN 1DP (Phytophthora infestans)
CNC(=O)C(=NOC)c1ccccc1COc1ccc(-c2cc(C(C)(C)C)on2)cn1 [Example 43] | 75 to 100 | 75 to 100 | 75 to 100 | 75 to 100 | – | – | – | –
CNC(=O)C(=NOC)c1ccccc1COc1ncc(-c2noc(-c3cccs3)n2)cc1Cl [Example 20] | 0 to 24 | 75 to 100 | 75 to 100 | 75 to 100 | – | – | – | –
CCc1noc(-c2cnc(OCc3ccccc3C(=COC)C(=O)OC)c(Cl)c2)n1 [Example 99] | 75 to 100 | 75 to 100 | 75 to 100 | 25 to 74 | – | – | – | –
CCc1noc(-c2cccc(OCc3ccccc3C(=NOC)C(=O)NC)n2)n1 [Example 85] | – | – | – | – | - (0-24% control of plant disease) | ++ (75-100% control of plant disease) | + (25-74% control of plant disease) | - (0-24% control of plant disease)
CCCc1noc(-c2ccc(OCc3ccccc3C(=NOC)C(=O)NC)nc2)n1 [Example 74] | 0 to 24 | 75 to 100 | 75 to 100 | 0 to 24 | – | – | – | –
CNC(=O)C(=NOC)c1ccccc1COc1ncc(-c2nnc(C3CC3)o2)cc1Cl [Example 1, Benzeneacetamide, 2-[[[3-chloro-5-(5-cyclopropyl-1,3,4-oxadiazol-2-yl)-2-pyridinyl]oxy]methyl]-α-(methoxyimino)-N-methyl-] | 0 to 24 | 75 to 100 | 0 to 24 | 75 to 100 | – | – | – | –
CNC(=O)C(=NOC)c1cccc(C)c1COc1ncc(-c2noc(C(F)(F)F)n2)cc1Cl [Example 35] | – | – | – | – | ++ (75-100% control of plant disease) | ++ (75-100% control of plant disease) | ++ (75-100% control of plant disease) | - (0-24% control of plant disease)
CNC(=O)C(=NOC)c1ccc(C)cc1COc1ncc(-c2noc(C(F)(F)F)n2)cc1Cl [Example 33] | – | – | – | – | ++ (75-100% control of plant disease) | ++ (75-100% control of plant disease) | ++ (75-100% control of plant disease) | ++ (75-100% control of plant disease)
CNC(=O)C(=NOC)c1ccccc1COc1ncc(-c2noc(C(C)(C)C)n2)cc1Cl [Example 6, Benzeneacetamide, 2-[[[3-chloro-5-(5-t-butyl-1,2,4-oxadiazol-3-yl)-2-pyridinyl]oxy]methyl]-α-(methoxyimino)-N-methyl-] | 75 to 100 | 75 to 100 | 75 to 100 | 75 to 100 | – | – | – | –
CCCCC(CC)c1nc(-c2cnc(OCc3ccccc3C(=NOC)C(=O)NC)c(Cl)c2)no1 (stereo not drawn) [Example 14] | 75 to 100 | 75 to 100 | 75 to 100 | 0 to 24 | – | – | – | –
CCOc1cc(-c2cnc(OCc3ccccc3C(=NOC)C(=O)NC)c(Cl)c2)no1 [Example 40] | 0 to 24 | 75 to 100 | 75 to 100 | 25 to 74 | – | – | – | –
CNC(=O)C(=NOC)c1ccccc1COc1ncc(-c2noc(-c3ccccc3)n2)cc1Cl [Example 7] | 75 to 100 | 75 to 100 | 75 to 100 | 75 to 100 | – | – | – | –
CCc1cc(-c2cnc(OCc3ccccc3C(=NOC)C(=O)NC)c(Cl)c2)on1 [Example 76] | 75 to 100 | 75 to 100 | 75 to 100 | 25 to 74 | – | – | – | –
O=C(NNC(=O)C1CC1)c1cnc(Cl)c(Cl)c1 [Example 19] | – | – | – | – | ++ (75-100% control of plant disease) | ++ (75-100% control of plant disease) | ++ (75-100% control of plant disease) | - (0-24% control of plant disease)
CNC(=O)C(=NOC)c1ccccc1COc1cccc(-c2nc(C(C)C)no2)n1 [Example 87] | 75 to 100 | 75 to 100 | 75 to 100 | 75 to 100 | – | – | – | –
CNC(=O)C(=NOC)c1ccccc1COc1ncc(-c2cc(C(C)(C)C)on2)cc1Cl [Example 41] | 75 to 100 | 75 to 100 | 75 to 100 | 0 to 24 | – | – | – | –
CCc1noc(-c2nc(OCc3ccccc3C(=NOC)C(=O)NC)ccc2Cl)n1 [Example 81] | 25 to 74 | 75 to 100 | 75 to 100 | 25 to 74 | – | – | – | –
CNC(=O)C(=NOC)c1ccccc1COc1ccc(-c2nc(C(C)(C)C)no2)cn1 [Example 65] | 75 to 100 | 75 to 100 | 75 to 100 | 0 to 24 | – | – | – | –
CNC(=O)C(=NOC)c1ccccc1COc1ncc(-c2noc(C34CC5CC(CC(C5)C3)C4)n2)cc1Cl [Example 15] | 0 to 24 | 75 to 100 | 75 to 100 | 75 to 100 | – | – | – | –
CNC(=O)C(=NOC)c1ccccc1COc1ncc(-c2noc(CCCl)n2)cc1Cl [Example 26] | 75 to 100 | 75 to 100 | 75 to 100 | 75 to 100 | – | – | – | –
CNC(=O)C(=NOC)c1ccccc1COc1ccc(-c2nc(C3CCCCC3)no2)cn1 [Example 73] | 0 to 24 | 75 to 100 | 75 to 100 | 25 to 74 | – | – | – | –
CNC(=O)C(=NOC)c1ccccc1COc1ccc(-c2cc(C(C)C)on2)cn1 [Example 42] | 0 to 24 | 75 to 100 | 75 to 100 | 75 to 100 | – | – | – | –
CCc1nc(-c2cnc(OCc3ccccc3C(=NOC)C(=O)NC)c(Cl)c2)no1 [Example 36] | 75 to 100 | 75 to 100 | 75 to 100 | 0 to 24 | – | – | – | –
CNC(=O)C(=NOC)c1ccccc1COc1ccc(-c2nc(C(F)(F)F)no2)cn1 [Example 71] | 0 to 24 | 75 to 100 | 75 to 100 | 75 to 100 | – | – | – | –
CNC(=O)C(=NOC)c1ccccc1COc1ncc(-c2noc(C3CC3)n2)cc1Cl [Example 21] | 75 to 100 | 75 to 100 | 75 to 100 | 75 to 100 | – | – | – | –
CCc1noc(-c2cnc(OCc3ccccc3C(=NOC)C(=O)OC)c(Cl)c2)n1 [Example 101] | 25 to 74 | 75 to 100 | 75 to 100 | 75 to 100 | – | – | – | –
CNC(=O)C(=NOC)c1ccccc1COc1ncc(-c2nc(N3CCCCC3)no2)cc1Cl [Example 69] | – | – | – | – | ++ (75-100% control of plant disease) | ++ (75-100% control of plant disease) | ++ (75-100% control of plant disease) | ++ (75-100% control of plant disease)
CNC(=O)C(=NOC)c1ccccc1COc1ncc(-c2nc(N(C)C)no2)cc1Cl [Example 64] | 75 to 100 | 75 to 100 | 75 to 100 | 0 to 24 | – | – | – | –
CNC(=O)C(=NOC)c1cccc(F)c1COc1ncc(-c2noc(C(C)(C)C)n2)cc1Cl [Example 27] | – | – | – | – | ++ (75-100% control of plant disease) | ++ (75-100% control of plant disease) | ++ (75-100% control of plant disease) | - (0-24% control of plant disease)
CNC(=O)C(=NOC)c1ccccc1COc1ccc(-c2nc(C(C)C)no2)cn1 [Example 70] | 75 to 100 | 75 to 100 | 75 to 100 | 0 to 24 | – | – | – | –
